Assay results as given in ChEMBL document CHEMBL1221333, “Design, synthesis, and biological evaluation of conformationally constrained glycerol 3-phosphate acyltransferase inhibitors” (Bioorg Med Chem, 2010).

Experiments:
[1] = Inhibition of GPAT
[2] = Inhibition of GPAT at 40 ug/ml

Row | SMILES | IC50 [1] [µM] | inhibition [2] [%]
1 | CCCCCCCCCS(=O)(=O)Nc1ccccc1C(=O)O | 24.7 | 97
2 | CCCCCCCCS(=O)(=O)N[C@H]1CCC[C@H](C(=O)O)[C@H]1O (racemic) | 164 | 36
3 | CCCCCCCCS(=O)(=O)N[C@H]1CC[C@H](CC(=O)O)[C@H]1O (racemic) | 295 | 8
4 | CCCCCCCCS(=O)(=O)N[C@@H]1CCC[C@H](CC(=O)O)[C@H]1O (racemic) | – | 17
5 | CCCCCCCCS(=O)(=O)N[C@@H]1CC[C@H](CC(=O)O)[C@H]1O (racemic) | – | 16
6 | CCCCCCCCS(=O)(=O)N[C@@H]1[C@@H](O)CC[C@H]1C(=O)O (racemic) | – | 12
7 | CCCCCCCCS(=O)(=O)N[C@H]1CCC[C@H](CC(=O)O)[C@@H]1O (racemic) | – | 23
8 | CCCCCCCCS(=O)(=O)N[C@H]1CCC[C@H](CC(=O)O)[C@H]1O (racemic) | – | 2
9 | CCCCCCCCS(=O)(=O)N[C@H]1CC[C@H](CC(=O)O)[C@@H]1O (racemic) | – | 8
10 | CCCCCCCCS(=O)(=O)N[C@H]1[C@H](O)CC[C@H]1C(=O)O (racemic) | – | 15

Second part, the compound after the results:

Row | IC50 [1] [µM] | inhibition [2] [%] | SMILES
11 | 255 | 25 | CCCCCCCCS(=O)(=O)N[C@@H]1CC[C@H](C(=O)O)[C@H]1O (racemic)
12 | 324 | 3 | CCCCCCCCS(=O)(=O)N[C@H]1CC[C@H](C(=O)O)[C@@H]1O (racemic)
13 | – | 17 | CCCCCCCCS(=O)(=O)N[C@@H]1CCC[C@H](C(=O)O)[C@H]1O (racemic)
14 | – | 15 | CCCCCCCCS(=O)(=O)N[C@H]1CCC[C@H](C(=O)O)[C@@H]1O (racemic)
15 | – | 19 | CCCCCCCCS(=O)(=O)N[C@H]1CC[C@H](C(=O)O)[C@H]1O (racemic)
